Five substances from patent publication US6037463A, “Enzymatic RNA molecules that cleave mutant N-RAS” (priority 1996, dated 2000) can be followed below.

Data set [1] has as its system synthetic substrate, wild type N-ras mRNA. The experiment in a line: Melting curves (Tm) of ribozyme-substrate complexes, wild type. The data set is classed as binding. The note with it: ribozyme-substrate complex. As for the experimental part:
(§1) In one investigation, short synthetic oligoribonucleotides of 15 nucleotides chain length served as substrates. Cleavage kinetics of all ribozymes were carried out under Michaelis-Menten conditions. […] Ribozymes RE990 or RE1035 against the wild type mRNA as well as their substrate complexes on the other hand reveal Tm values of approximately 52° C.
(§2) UV temperature curves were measured at 260 nm using a Varian Cary-1 UV/VIS-spectrophotometer. The target was prepared by dissolving the ribozyme in a buffer containing 50 mM Tris-Cl (pH 7.5) and 10 mM MgCl2. The sample was transferred in a cuvette with a 10 mm path length. The ribozyme was denatured at 80° C. for 5 min, and subsequently the substrate RNA and substrate DNA were added and the whole mixture was renatured at 1° C./min. Melting curves at 260 nm were performed by heating the solution in the cuvette at 0.75° C./min and acquiring absorbance data every 0.5° C. step until 80° C. was reached. The Tm value and thermodynamic parameters of transition were obtained by fitting data of a two transition state model with the GraFit version 2.0 from Sigma Chemicals Co. software using the method of Marky and Breslauer, Biopolymers 26:1601 (1987).

The subject of data set [2] is synthetic oligoribonucleotide substrate of 15 nucleotides, wild-type N-ras mRNA (codon 64, 89 or 103). The experiment in a line: Kinetics with synthetic substrates (multiple turnover), ribozymes against wild-type N-ras. The class given is biochemical. The following applies: for Km / kcat: Table IA, Michaelis-Menten conditions; for kcat: 37° C., 10 mM MgCl2. As for the experimental part:
as §1
(§3) Kinetic constants Km and kcat were determined from Eadie-Hofstee plots carried out with 5'-^32 P-labeled substrate. The RNA substrate was labeled by reaction with T4 polynucleotide kinase and [γ-^32P]-ATP. 5'-end labeled substrate was purified from [γ-^32 P]-ATP with CENTRICON-3 tubes. Ribozyme and substrate were heated separately for 1 min at 75° C. in 50 mM Tris-Cl (pH 7.5). After cooling to 37° C. for 5 min, 100 mM MgCl2 were added to a final concentration of 10 mM, and the solution was incubated for an additional 5 min at 37° C. Multiple turnover reactions were carried out in a volume of 100 μl with concentrations of substrate between 20-500 nM and ribozyme concentrations from 2 to 5 nM in 50 mM Tris-Cl (pH 7.5) and 10 mM MgCl2 at 37° C. Reactions were initiated by addition of ribozyme. The reaction was stopped by mixing the ribozymes with an equal volume of stop solution (8 M urea, 25 mM EDTA). The cleavage reactions were analyzed on 20% denaturing polyacrylamide gels (8 M urea) and scanned on a Molecular Dynamic Phosphorimaging system.

The test system of data set [3] is in vitro transcribed wild type N-ras mRNA. The experiment in a line: Kinetics with in vitro transcribed RNA (single-turnover), wild type. The class given is biochemical. The following applies: for cleavage of wild type N-ras mRNA: ribozymes directed against mutant mRNA. The text has this: (§4) In a further investigation, RNA containing the mutant or wild type N-ras sequence from transcription initiation site to termination site was synthesized by in vitro transcription. In order to achieve efficient mRNA cleavage, the target sequence of the substrate (NUX-triplet, N=A,G,C,U; X=C,A,U) is not allowed to be double-stranded or part of a stable hairpin. The in vitro transcribed RNA served as substrate for five ribozymes mentioned above. The catalytic efficiency was examined under "single-turnover" conditions to detect the splice products.
(§5) For in vitro transcription, pMS5-NRAS, pMS5A-NRAS and pMS5B-NRAS were linearized by EcoRI digestion, phenol-extracted and ethanol-precipitated. Transcription was carried out in a 100 μl mixture containing 50 ng/μl linearized plasmid DNA, 10 mM DTT, 40 mM Tris-Cl (pH 7.5), 50 mM NaCl, 8 mM MgCl2, 2 mM spermidine, 500 μM rNTP's, 0.8 U/μl RNAse-lnhibitor, 2 μCi/μl [α-^32 P]-ATP and 2.5 U/μl T7 RNA Polymerase. A one-hour incubation at 37° C. was followed by the addition of 25 Units of DNAsel, and the mixture was incubated for an additional 30 min at 37° C. After subsequent phenol extraction, the aqueous phase was transferred into a CENTRICON-100 tube and centrifuged at 3,400 U/min for 30 min. The RNA-solution was checked for homogeneity by UV absorption and 6% analytical PAGE (8 M urea). The solution was stored frozen at -20° C.
(§6) The cleavage efficiency under "single-turnover" conditions was determined in a volume of 10 μl using 20-1200 nM ribozyme, 50 mM Tris-Cl (pH 7.5) and 10 mM MgCl2. The reaction was initiated by addition of RNA substrate to a final concentration of 10 nM substrate over 1 h at 37° C. The reaction was stopped by mixing 8 μl of stop solution to each reaction. The reaction was analyzed on 6% denaturing polyacrylamide gels and scanned on a Molecular Dynamics Phosphor Imager. The single turnover kcat /Km values were determined as described by Heidenreich et al., J. Biol. Chem. 267:1904 (1992).

For data set [4], the system named is synthetic substrate, mutant N-ras mRNA (codon 13). The experiment in a line: Melting curves (Tm) of ribozyme-substrate complexes, mutant. The class given is binding. The note with it: ribozyme-substrate complex. How it is done: as §1, §2
Data set [5] has as its system synthetic oligoribonucleotide substrate of 15 nucleotides, mutant N-ras mRNA (codon 13). The experiment in a line: Kinetics with synthetic substrates (multiple turnover), ribozymes against mutant N-ras. The data set is classed as biochemical. The following applies: Table IA, Michaelis-Menten conditions; for kcat: 37° C., 10 mM MgCl2. How it is done: as §1, §3
Data set [6] has as its system in vitro transcribed mutant N-ras mRNA (codon 13). The experiment in a line: Kinetics with in vitro transcribed RNA (single-turnover), mutant. The data set is classed as biochemical.
Excerpt: as §4, §5, §6

Data set [7] deals with N-ras transformed NIH3T3 cells (mutation in codon 13, clones 2 and 4). The experiment in a line: Colony-forming soft agar assay, retrovirally mediated ribozyme. The class given is cell-based. The note with it: beyond the effect of the retroviral vector alone. How it is done:
The cells of the constitutively N-ras expressing clones 2 and 4 (mutation in codon 13) were subcultured in soft agar using the colony-forming agar assay of Cowley et al., Cell 77:841 (1994). The colony-forming agar assay is a semisolid method in which cells are suspended in a 0.3% agar upper layer and plated out over a 0.5% agar lower layer in Petri dishes. The lower layer was prepared by heating a 2.5% solution of agar in deionized water. After cooling the agar to 45° C. in a water bath, an agar mix of 0.5% agar was prepared by combining 25 ml of 1×DMEM medium, 10 ml of 2.5% agar, 10 ml of 2×DMEM medium, and 5 ml of fetal calf serum. One milliliter samples of the agar mix were pipetted into 35 mm Petri culture dishes and stored at 4° C. for 30 minutes.
The upper layer was prepared by adding 0.2 ml of agar mix to 1 ml of about 5×10^4 cells/ml suspension, and adding DMEM medium to a total volume of 1.7 ml. One milliliter samples were pipette onto bottom agar layers and incubated for 14-21 days at 37° C. […]
The soft agar cultures were incubated for […] at 37° C. and 5% CO2. The reduction in transformed N-ras NIH3T3 cells was analyzed by counting cell clusters under a microscope. The soft agar preparations were set up in quadruplicate for each construct and the mean values were calculated, as presented in Table VII.

Where [8] appears, read: Table IIA, single-turnover, transcribed N-ras mRNA.
[9] abbreviates: Table IIB, single-turnover, transcribed RNA.
The mark [10] stands for this setting: Table III, modified ribozymes, transcribed N-ras mRNA.

The Km is the concentration of substrate that gives half-maximal velocity. The term kcat denotes the number of substrate molecules converted per active site and unit of time at saturation. Turning to “RE990: ribozyme against codon 89 of the wild-type N-ras mRNA, SEQ ID NO:15 (CGCAAAUCUGAUGAGCGUUAGCGAAACUUGCU; chemistry not given here)”, in data set [1], the Tm entry is “approximately 52 °C”. Also, in data set [2], the “kcat /Km” value was “much less catalytic efficiency”, the Km worked out at 0.404 µM and the kcat came out at 0.004 s⁻¹. In data set [3] (setting [8]), the Km came out at 0.234 µM and the kcat is listed as 72 10^6 × s^-1.

Regarding “RE1035: ribozyme against codon 103 of the wild-type N-ras mRNA, SEQ ID NO:16 (AGUCUUUCUGAUGAGCGUUAGCGAAACUCGCU; chemistry not given here)”, the Tm result in data set [1] was “approximately 52 °C”. For the same substance, in data set [2], the Michaelis-Menten constant (Km) came out at 0.277 µM and the turnover number (kcat) worked out at 0.013 s⁻¹. Besides, in data set [3] (setting [8]), the Km worked out at 0.425 µM and the catalytic constant (kcat) was 44 10^6 × s^-1.

As for “RE917: ribozyme against codon 64 of the wild-type N-ras mRNA, SEQ ID NO:14 (GGCACUGCUGAUGAGCGUUAGCUAAACUCUUC; chemistry not given here)”, the Michaelis constant (Km) in data set [2] is 0.078 µM; in data set [3] (setting [8]), 0.063 µM; in data set [3] (setting [9]) it was 0.063 µM; in data set [3] (setting [10]) it was 0.063 µM. The results for the kcat in data set [2], in data set [3] (setting [8]) and in data set [3] (setting [10]) were 0.013 s⁻¹, 59 10^6 × s^-1 and 59 10^6 × s^-1, respectively. In data set [3] (setting [9]), the kreact is given as 59 10^6 s^-1.

With “5'-UCCCAACCUGAUGAGCGUUAGCGAAACACCUG-3' (chemistry not given here)”, the Tm entry in data set [4] is “approximately 48 °C”. Moreover, the Michaelis constant (Km) in data set [5] came out at 0.065 µM; in data set [6] (setting [8]), 0.113 µM; in data set [6] (setting [9]) it was 0.113 µM; in data set [6] (setting [10]), 0.113 µM. Besides, the kcat in data set [5] was 0.012 s⁻¹; in data set [6] (setting [8]) it was 137 10^6 × s^-1; in data set [6] (setting [10]), 137 10^6 × s^-1. In addition, the kreact in data set [6] (setting [9]) is 137 10^6 s^-1. In addition, in data set [3], the “cleavage of wild type N-ras mRNA” value is given as “do not cleave”.

As for “5'-CCAACACCUGAUGAGCGUUAGCGAAACCUGCU-3' (chemistry not given here)”, the Tm result in data set [4] is “approximately 48 °C”. Besides, the “reversion of the malignant phenotype” value in data set [7] is on record as “about 18%”. Moreover, the Michaelis constant (Km) is 0.082 µM in data set [5], 0.071 µM in data set [6] (setting [8]) and 0.071 µM in data set [6] (setting [10]). Besides, the figures for the kcat in data set [5], in data set [6] (setting [8]) and in data set [6] (setting [10]) were 0.015 s⁻¹, 266 10^6 × s^-1 and 266 10^6 × s^-1, respectively. Also, in data set [3], the “cleavage of wild type N-ras mRNA” value was “do not cleave”.
